Data from patent publication US20250034135A1, “ANTI-APOPTOTIC PROTEIN BCL-2 INHIBITOR, PHARMACEUTICAL COMPOSITION AND USES THEREOF” (HANGZHOU HEALZEN THERAPEUTICS CO., LTD., priority 2021, published 2025).

Biological target: BCL2 (Homo sapiens (Human), UniProt P10415)
Assay: Molecular level activity test of anti-apoptotic protein BCL2 (HTRF, binding to Bim peptide)
Conditions: HTRF, binding of BCL2 to Bim peptide; read-out: BCL2 nM (inhibitory activity, IC50)
Summary of the method: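 Step one: compound, supplied in 2% DMSO, is mixed with His-tagged BCL2 and biotinylated Bim peptide and reacted for 1 h. Step two: anti-His and streptavidin-XL665 reagents in detection buffer are added. Step three: after a 4 h room-temperature incubation, time-resolved fluorescence is measured.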

BCL2, sequence (P10415 whole entry): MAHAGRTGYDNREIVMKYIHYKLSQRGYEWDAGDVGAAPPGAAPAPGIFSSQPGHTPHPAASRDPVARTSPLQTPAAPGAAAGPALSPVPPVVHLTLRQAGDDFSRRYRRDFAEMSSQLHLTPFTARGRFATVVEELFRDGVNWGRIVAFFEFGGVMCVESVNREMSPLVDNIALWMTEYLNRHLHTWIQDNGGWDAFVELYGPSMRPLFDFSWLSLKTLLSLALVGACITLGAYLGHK

Row | SMILES | IC50 [nM]
1 | CC(C)c1ccccc1[C@@H]1CCCN1C1CC2(CCN(c3cc(Oc4cnc5[nH]ccc5c4)c(C(=O)NS(=O)(=O)c4cc([N+](=O)[O-])c(NCC5(F)CCN(C6CCOCC6)CC5)c5[nH]cnc45)cn3)CC2)C1 [compound 023] | < 10
2 | CC(C)c1ccccc1[C@@H]1CCCN1C1CC2(CCN(c3cc(Oc4cnc5[nH]ccc5c4)c(C(=O)NS(=O)(=O)c4cc([N+](=O)[O-])c(NCC5(F)CCN(C(=O)CN(C)C)CC5)c5[nH]cnc45)cc3F)CC2)C1 [compound 030, (S)-2-((1H-pyrrolo[2,3-b]pyrid-5-yl)oxy)-N-((7-(((1-(dimethylglycyl)-4-fluoropiperid-4-yl)methyl)amino)-6-nitro-1H-benzo[d]imidazol-4-yl)sulfonyl)-5-fluoro-4-(2-(2-(2-isopropylphenyl)pyrrolidin-1-yl)-7-azaspiro[3.5]non-7-yl)benzamide] | < 10
3 | COc1ccc(CN2C[C@@H](c3ccccc3C(C)C)N(C3CC4(CCN(c5cc(Oc6cnc7[nH]ccc7c6)c(C(=O)NS(=O)(=O)c6ccc(NCC7(F)CCOCC7)c([N+](=O)[O-])c6)cc5F)CC4)C3)C[C@H]2C)cc1 [compound 155, 2-((1H-pyrrolo[2,3-b]pyrid-5-yl)oxy)-5-fluoro-N-((4-(((4-fluorotetrahydro-2H-pyran-4-yl)methyl)amino)-3-nitrophenyl)sulfonyl)-4-(2-((2R,5R)-2-(2-isopropylphenyl)-4-(4-methoxybenzyl)-5-methylpiperazin-1-yl)-7-azaspiro[3.5]non-7-yl)benzamide] | < 10
4 | COc1ccc(CN2CCN(C3CC4(CCN(c5ccc(C(=O)NS(=O)(=O)c6cc([N+](=O)[O-])c(NCC7(F)CCOCC7)c7[nH]cnc67)c(N6CCCOc7nc8[nH]ccc8cc76)c5)CC4)C3)C(c3ccccc3C(C)C)C2)cc1 (stereo not shown) [compound 094, 2-(3,4-dihydro-2H-pyrrolo[3′,2′:5,6]pyridino[2,3-b][1,4]oxazacycloheptane-1 (7H)-yl)-N-((7-(((4-fluorotetrahydro-2H-pyran-4-yl)methyl)amino)-6-nitro-1H-benzo[d]imidazol-4-yl)sulfonyl)-4-(2-(2-(2-isopropylphenyl)-4-(4-methoxybenzyl)piperazin-1-yl)-7-azaspiro[3.5]non-7-yl)benzamide] | < 10
5 | COc1ccc(CN2C[C@@H](c3ccccc3C(C)C)N(C3CC4(CCN(c5cc(Oc6cnc7[nH]ccc7c6)c(C(=O)NS(=O)(=O)c6ccc(NCC7(F)CCOCC7)c([N+](=O)[O-])c6)cc5F)CC4)C3)C[C@@H]2C)cc1 [compound 154, 2-((1H-pyrrolo[2,3-b]pyrid-5-yl)oxy)-5-fluoro-N-((4-(((4-fluorotetrahydro-2H-pyran-4-yl)methyl)amino)-3-nitrophenyl)sulfonyl)-4-(2-((2R,5S)-2-(2-isopropylphenyl)-4-(4-methoxybenzyl)-5-methylpiperazin-1-yl)-7-azaspiro[3.5]non-7-yl)benzamide] | < 10
6 | CC(C)c1ccccc1[C@@H]1CCCN1C1CC2(CCN(c3cc(Oc4cnc5[nH]ccc5c4)c(C(=O)NS(=O)(=O)c4cc([N+](=O)[O-])c(NCC5(F)CCOCC5)c5ocnc45)cc3F)CC2)C1 [compound 103, (S)-2-((1H-pyrrolo[2,3-b]pyrid-5-yl)oxy)-5-fluoro-N-((7-(((4-fluorotetrahydro-2H-pyran-4-yl)methyl)amino)-6-nitrobenzo[d]oxazol-4-yl)sulfonyl)-4-(2-(2-(2-isopropylphenyl)pyrrolidin-1-yl)-7-azaspiro[3.5]non-7-yl)benzamide] | < 10
7 | COc1ccc(CN2CCN(C3CC4(CCN(c5ccc(C(=O)NS(=O)(=O)c6cc([N+](=O)[O-])c(NCC7CCOCC7)c7[nH]cnc67)c(N6CCCOc7nc8[nH]ccc8cc76)c5)CC4)C3)C(c3ccccc3C(C)C)C2)cc1 (stereo not shown) [compound 092, 2-(3,4-dihydro-2H-pyrrolo[3′,2′:5,6]pyridino[2,3-b][1,4]oxazacyclohept-1 (7H)-yl)-4-(2-(2-(2-isopropylphenyl)-4-(4-methoxybenzyl)piperazin-1-yl)-7-azaspiro[3.5]non-7-yl)-N-((6-nitro-7-(((tetrahydro-2H-pyran-4-yl)methyl)amino)-1H benzo[d]imidazol-4-yl)sulfonyl)benzamide] | < 10
8 | COc1cc(CN2CCN(C3CC4(CCN(c5cc(Oc6cnc7[nH]ccc7c6)c(C(=O)NS(=O)(=O)c6ccc(NCC7(F)CCOCC7)c([N+](=O)[O-])c6)cc5F)CC4)C3)[C@H](c3ccccc3C(C)C)C2)ccc1C(C)C [compound 194, (R)-2-((1H-pyrrolo[2,3-b]pyrid-5-yl)oxy)-5-fluoro-N-((4-(((4-fluorotetrahydro-2H-pyran-4-yl)methyl)amino)-3-nitrophenyl)sulfonyl)-4-(2-(4-(4-isopropyl-3-methoxybenzyl)-2-(2-isopropylphenyl)piperazin-1-yl)-7-azaspiro[3.5]non-7-yl)benzamide] | < 10
9 | CC(C)c1ccccc1[C@@H]1CCCN1C1CC2(CCN(c3cc(Oc4cnc5[nH]ccc5c4)c(C(=O)NS(=O)(=O)c4cc([N+](=O)[O-])c(NC[C@H]5CC[C@](C)(O)CC5)c5c4CCO5)cc3F)CC2)C1 [compound 100, 2-((1H-pyrrolo[2,3-b]pyrid-5-yl)oxy)-5-fluoro-N-((7-((((1r, 4r)-4-hydroxy-4-methylcyclohexyl)methyl)amino)-6-nitro-2,3-dihydrobenzofuran-4-yl)sulfonyl)-4-(2-((S)-2-(2-isopropylphenyl)pyrrolidin-1-yl)-7-azaspiro[3.5]non-7-yl)benzamide] | < 10
10 | COc1cc(CN2CCN(C3CC4(CCN(c5cc(Oc6cnc7[nH]ccc7c6)c(C(=O)NS(=O)(=O)c6ccc(NCC7(F)CCOCC7)c([N+](=O)[O-])c6)cc5F)CC4)C3)[C@H](c3ccccc3C(C)C)C2)cc2cc(C)oc12 [compound 202, (R)-2-((1H-pyrrolo[2,3-b]pyrid-5-yl)oxy)-5-fluoro-N-((4-(((4-fluorotetrahydro-2H-pyran-4-yl)methyl)amino)-3-nitrophenyl)sulfonyl)-4-(2-(2-(2-isopropylphenyl)-4-((7-methoxy-2-methylbenzofuran-5-yl)methyl)piperazin-1-yl)-7-azaspiro[3.5]non-7-yl)benzamide] | < 10

Results, then the molecule that gave them:

Row | IC50 [nM] | SMILES
11 | < 10 | COc1ccc(CN2CCN(C3CC4(CCN(c5ccc(C(=O)NS(=O)(=O)c6cc([N+](=O)[O-])c(NC[C@H]7COCCO7)c7c6OCCO7)c(Oc6cnc7[nH]ccc7c6)c5)CC4)C3)[C@H](c3ccccc3C(C)C)C2)cc1 [compound 183, N-((8-((((S)-1,4-dioxan-2-yl)methyl)amino)-7-nitro-2,3-dihydrobenzo[b][1,4]dioxan-5-yl)sulfonyl)-2-((1H-pyrrolo[2,3-b]pyrid-5-yl)oxy)-4-(2-((R)-2-(2-isopropylphenyl)-4-(4-methoxybenzyl)piperazin-1-yl)-7-azaspiro[3.5]non-7-yl)benzamide]
12 | < 10 | COc1ccc(CN2CCN(C3CC4(CCN(c5cc(Oc6cnc7[nH]ccc7c6)c(C(=O)NS(=O)(=O)c6cc([N+](=O)[O-])c(NCC7(F)CCOCC7)c7ccoc67)cc5F)CC4)C3)[C@H](c3ccccc3C(C)C)C2)cc1 [compound 143, (R)-2-((1H-pyrrolo[2,3-b]pyrid-5-yl)oxy)-5-fluoro-N-((4-(((4-fluorotetrahydro-2H-pyran-4-yl)methyl)amino)-5-nitrobenzofuran-7-yl)sulfonyl)-4-(2-(2-(2-isopropylphenyl)-4-(4-methoxybenzyl)piperazin-1-yl)-7-azaspiro[3.5]non-7-yl)benzamide]
13 | < 10 | CC(C)c1ccccc1C1CN(C2CCOCC2)CCN1C1CC2(CCN(c3ccc(C(=O)NS(=O)(=O)c4cc([N+](=O)[O-])c(NC[C@H]5CC[C@](C)(O)CC5)c5[nH]cnc45)c(Oc4cnc5[nH]ccc5c4)c3)CC2)C1 (stereo partly shown) [compound 043, 2-((1H-pyrrolo[2,3-b]pyrid-5-yl)oxy)-N-((7-((((1r,4r)-4-hydroxy-4-methylcyclohexyl)methyl)amino)-6-nitro-1H-benzo[d]imidazol-4-yl)sulfonyl)-4-(2-(2-(2-isopropylphenyl)-4-(tetrahydro-2H-pyran-4-yl)piperazin-1-yl)-7-azaspiro[3.5]non-7-yl)benzamide]
14 | < 10 | COc1ccc(CN2CCN(C3CC4(CCN(c5cc(Oc6cnc7[nH]ccc7c6)c(C(=O)NS(=O)(=O)c6cc([N+](=O)[O-])c(NC[C@H]7CC[C@](C)(O)CC7)c7scnc67)cn5)CC4)C3)[C@H](c3ccccc3C(C)C)C2)cc1 [compound 140, 4-((1H-pyrrolo[2,3-b]pyrid-5-yl)oxy)-N-((7-((((1r, 4r)-4-hydroxy-4-methylcyclohexyl)methyl)amino)-6-nitrobenzo[d]thiazol-4-yl)sulfonyl)-6-(2-((R)-2-(2-isopropylphenyl)-4-(4-methoxybenzyl)piperazin-1-yl)-7-azaspiro[3.5]non-7-yl) nicotinamide]
15 | < 10 | COc1ccc(CN2CCN(C3CC4(CCN(c5cc(Oc6cnc7[nH]ccc7c6)c(C(=O)NS(=O)(=O)c6cc([N+](=O)[O-])c(NCC7(F)CCOCC7)c7c6OCCO7)cn5)CC4)C3)[C@H](c3ccccc3C(C)C)C2)cc1 [compound 136, (R)-4-((1H-pyrrolo[2,3-b]pyrid-5-yl)oxy)-N-((8-(((4-fluorotetrahydro-2H-pyran-4-yl)methyl)amino)-7-nitro-2,3-dihydrobenzo[b][1,4]dioxan-5-yl)sulfonyl)-6-(2-(2-(2-isopropylphenyl)-4-(4-methoxybenzyl)piperazin-1-yl)-7-azaspiro[3.5]non-7-yl) nicotinamide]
16 | < 10 | COc1ccc(CN2CCN(C3CC4(C3)CN(c3cc(Oc5cnc6[nH]ccc6c5)c(C(=O)NS(=O)(=O)c5cc([N+](=O)[O-])c(NCC6(F)CCN(C(C)C)CC6)c6[nH]cnc56)cc3F)C4)C(c3ccccc3C(C)C)C2)cc1 (stereo not shown) [compound 074, 2-((1H-pyrrolo[2,3-b]pyrid-5-yl)oxy)-5-fluoro-N-((7-(((4-fluoro-1-isopropylpiperid-4-yl)methyl)amino)-6-nitro-1H-benzo[d]imidazol-4-yl)sulfonyl)-4-(6-(2-(2-isopropylphenyl)-4-(4-methoxybenzyl)piperazin-1-yl)-2-azaspiro[3.3]hept-2-yl)benzamide]
